In US20200087732A1, “IDENTIFICATION OF DRUGS TARGETING NON-GENETIC DRUG TOLERANCE PROGRAMS IN CANCER” (ETH ZURICH, priority 2016, published 2020):

What was measured:
Type in all cases: cell-based
SOX2 = SOX2 levels by Western blot after MAPKi treatment; details: A375-P cells, indicated times
Description: (A) A375-P cells were treated with PLX4720 (BRAFi) or DMSO for 6 h, RNA was isolated and RNA-Seq was performed. […] Differentially expressed genes (DEGs) selected for pathway analysis are represented by red and blue dots depending on the direction of the transcriptional change (red genes are induced upon PLX4720, blue genes are repressed upon PLX4720). (B) Bar graphs showing the five top pathways with significant enrichment of the analyzed DEGs. Longer bars indicate stronger significance. (C) Top deregulated genes upon treatment with PLX4720 (left column). Top genes induced and repressed by PLX4720 are shown in separate lists. (D) Indicated cell lines were treated with 1 μM PLX4720 or 0.01% DMSO (0 h) for the indicated times and the expressional changes of selected genes associated with stemness/EMT were confirmed by qPCR. […] Data shown represent mean of independent biological triplicates ±SEM. (E) Western blot analysis of the same experiment as shown in (D). As key player in the stemness signature, SOX2 levels were assessed. P-ERK1/2 levels served as positive treatment controls. Total ERK1/2 levels served as loading control. (F) A375-P cells were treated with 1 μM PLX4720, 0.5 μM AZD6244 (MEK1/2 inhibitor) or 0.01% DMSO for the indicated times and SOX2 levels were assessed by Western blot analysis. […] (G) A375-P cells were treated with 1 μM PLX4720 (BRAFi), 0.5 μM AZD6244 (MEKi), a combination of both drugs or 0.01% DMSO for the indicated times and SOX2 levels were assessed by Western blot analysis. […] (H) A375-P cells were treated with 1 μM PLX4720 (BRAFi), 0.5 μM AZD6244 (MEKi), a combination of both drugs or 0.01% DMSO for the 24 h and the expressional changes of selected genes associated with stemness/EMT were confirmed by qPCR. […] For all Western blots, individual time points were assessed in at least two independent experiments. Representative data is shown.

[1] = system: genes associated with stemness/EMT; assay: qPCR of selected genes associated with stemness/EMT in A375-P cells; details: FIG. 1H, 1 μM PLX4720, 0.5 μM AZD6244 or combination of both, 24 h
Description: (A) A375-P cells were treated with PLX4720 (BRAFi) or DMSO for 6 h, RNA was isolated and RNA-Seq was performed. […] (B) Bar graphs showing the five top pathways with significant enrichment of the analyzed DEGs. Longer bars indicate stronger significance. […] Data shown represent mean of independent biological triplicates ±SEM. (E) Western blot analysis of the same experiment as shown in (D). As key player in the stemness signature, SOX2 levels were assessed. P-ERK1/2 levels served as positive treatment controls. Total ERK1/2 levels served as loading control. (F) A375-P cells were treated with 1 μM PLX4720, 0.5 μM AZD6244 (MEK1/2 inhibitor) or 0.01% DMSO for the indicated times and SOX2 levels were assessed by Western blot analysis. […] (G) A375-P cells were treated with 1 μM PLX4720 (BRAFi), 0.5 μM AZD6244 (MEKi), a combination of both drugs or 0.01% DMSO for the indicated times and SOX2 levels were assessed by Western blot analysis. […] For all Western blots, individual time points were assessed in at least two independent experiments. Representative data is shown.

S6K and BAD = assay: Survival signaling by Western blot in A375-P/pTRIPZ cells; details: FIG. 2G, PLX4720 for 48 h
Description: (§1) (A) A375-P cells were transfected with 100 nM siRNA targeting SOX2 or a negative control siRNA. Cells were then treated with PLX4720 (BRAFi) or DMSO for 48 h. 2 h before harvesting, cells were pulsed with 3 uM EdU to label cycling cells. EdU-positive cells were detected using flow cytometry. […] Representative data is shown. (B) Quantification of experiment (A). For each condition, percentage of cycling cells upon siRNA knockdown of SOX2 was normalized to the negative control siRNA. Data shown represent mean of independent biological triplicates ±SEM. (C) A375-P cells stably transduced with pTRIPZ-SOX2 vector were treated with the indicated concentrations of doxycycline for three days or with 1 μM PLX4720 (PLX) for 24 h. SOX2 overexpression was confirmed by Western blot analysis. Lamin A served as loading control. Individual concentrations were assessed in at least two independent experiments. Representative results are shown. (D) A375-P/pTRIPZ-control or -SOX2 cells were pre-treated with 0 ng/ml (negative control) or with 50 ng/ml doxycycline for 24 h, and subsequently with DMSO or PLX4720 for an additional 48 h. 2 h before harvesting, cells were pulsed with 3 uM EdU to label cycling cells. EdU-positive cells were detected using flow cytometry. […] Cell viability was assessed by PrestoBlue assay and IC50 values were calculated. […] Survival signaling was assessed by Western blot. […]

[2] = system: A375-P/pTRIPZ-control or -SOX2 cells; assay: Cell viability by PrestoBlue assay; details: FIG. 2E-F; pTRIPZ-SOX2 cells with 50 ng/ml doxycycline versus 0 ng/ml; serial dilutions of PLX4720 for four days
Description: as §1

[3] = FIG. 1F, 1 μM PLX4720 or 0.5 μM AZD6244
[4] = FIG. 1G, 1 μM PLX4720, 0.5 μM AZD6244 or combination of both

| SMILES | SOX2 levels (Western blot) (SOX2; [3]) | SOX2 levels (Western blot) (SOX2; [4]) | transcript levels of selected stemness/EMT genes (qPCR) [1] | survival signaling via S6K and BAD (Western blot) (S6K and BAD) | drug sensitivity (survival curve, cell viability) [2] |
| --- | --- | --- | --- | --- | --- |
| Cn1cnc2c(F)c(Nc3ccc(Br)cc3Cl)c(C(=O)NOCCO)cc21 [AZD6244] | induce similar SOX2 levels | comparable effects on SOX2 levels | comparable effects on transcript levels |  |  |
| CCCS(=O)(=O)Nc1ccc(F)c(C(=O)c2c[nH]c3ncc(Cl)cc23)c1F [PLX4720] | induce similar SOX2 levels | comparable effects on SOX2 levels | comparable effects on transcript levels | repressed | decreased drug sensitivity when SOX2 is overexpressed |
